Data: the NIST ThermoML archive (doi:10.1021/je034102r)

Experiment: molar heat capacity at saturation pressure
Conditions: Small (less than 1 g) adiabatic calorimetry

CCCCn1cc[n+](C)c1.F[P-](F)(F)(F)(F)F [1-butyl-3-methylimidazolium hexafluorophosphate]
Conditions	molar heat capacity [J/K/mol]
5 K, Crystal	1.007
5 K, Glass	1.946
5.09 K, Glass	2.049
5.13 K, Crystal	1.065
5.36 K, Glass	2.336
5.41 K, Crystal	1.231
5.59 K, Glass	2.627
5.67 K, Crystal	1.405
5.85 K, Glass	2.997
5.97 K, Crystal	1.625
6.14 K, Glass	3.411
6.29 K, Crystal	1.927
6.47 K, Glass	3.839
6.6 K, Crystal	2.264
6.82 K, Glass	4.454
6.91 K, Crystal	2.566
7.15 K, Glass	4.943
7.23 K, Crystal	2.994
7.49 K, Glass	5.596
7.58 K, Crystal	3.435
7.84 K, Glass	6.275
7.92 K, Crystal	3.848
8.21 K, Glass	6.958
8.28 K, Crystal	4.395
8.61 K, Glass	7.772
8.66 K, Crystal	4.99
9 K, Glass	8.63
9.07 K, Crystal	5.739
9.41 K, Glass	9.587
9.49 K, Crystal	6.479
9.82 K, Glass	10.46
9.92 K, Crystal	7.352
10 K, Crystal	7.487
10 K, Glass	10.93
10.27 K, Glass	11.64
10.35 K, Crystal	8.195
10.75 K, Crystal	9.005
10.76 K, Glass	12.74
11.18 K, Crystal	10.04
11.23 K, Glass	14.01
11.74 K, Crystal	11.29
11.74 K, Glass	15.2
12.29 K, Glass	16.65
12.32 K, Crystal	12.57
12.81 K, Glass	18.03
12.92 K, Crystal	14.08
13.36 K, Glass	19.55
13.56 K, Crystal	15.72
13.99 K, Glass	21.2
14.2 K, Crystal	17.26
14.65 K, Glass	23.01
14.85 K, Crystal	19.06
15 K, Crystal	19.41
15 K, Glass	23.95
15.35 K, Glass	24.94
15.51 K, Crystal	20.76
16.07 K, Glass	26.85
16.24 K, Crystal	22.77
16.81 K, Glass	28.88
17 K, Crystal	24.84
17.63 K, Glass	31.14
17.78 K, Crystal	26.97
18.5 K, Glass	33.53
18.66 K, Crystal	29.5
19.36 K, Glass	35.93
19.54 K, Crystal	32.1
20 K, Crystal	33.34
20 K, Glass	37.71
20.17 K, Glass	38.13
20.45 K, Crystal	34.73
21.05 K, Glass	40.62
21.38 K, Crystal	37.23
22.07 K, Glass	43.51
22.32 K, Crystal	39.8
23.08 K, Glass	46.05
23.31 K, Crystal	42.57
24.15 K, Glass	49.07
24.37 K, Crystal	45.56
25 K, Crystal	47.15
25 K, Glass	51.23
25.25 K, Glass	51.82
25.51 K, Crystal	48.5
26.28 K, Glass	54.6
26.64 K, Crystal	51.23
27.38 K, Glass	57.25
27.83 K, Crystal	54.25
28.63 K, Glass	60.1
29.06 K, Crystal	57.36
29.99 K, Glass	63.37
30 K, Crystal	59.6
30 K, Glass	63.41
30.21 K, Crystal	60.16
31.43 K, Glass	66.52
31.51 K, Crystal	63.15
32.95 K, Glass	70.07
32.97 K, Crystal	66.37
34.47 K, Crystal	69.5
34.52 K, Glass	73.45
35 K, Crystal	70.66
35 K, Glass	74.31
36.07 K, Crystal	72.74
36.17 K, Glass	76.76
37.71 K, Crystal	76.12
37.88 K, Glass	79.79
39.38 K, Crystal	79.31
39.66 K, Glass	83.48
40 K, Crystal	80.48
40 K, Glass	83.89
41.07 K, Crystal	82.46
41.55 K, Glass	86.89
42.76 K, Crystal	85.47
43.54 K, Glass	90.3
44.47 K, Crystal	88.38
45 K, Crystal	89.21
45 K, Glass	92.46
45.53 K, Glass	93.29
46.22 K, Crystal	91.38
47.48 K, Glass	96.53
48 K, Crystal	93.87
49.44 K, Glass	99.69
49.81 K, Crystal	96.36
50 K, Crystal	96.95
50 K, Glass	100.6
51.38 K, Glass	102.7
51.62 K, Crystal	99.36
53.34 K, Glass	105.7
53.48 K, Crystal	101.9
55.43 K, Glass	108.8
55.49 K, Crystal	104.4
57.6 K, Glass	111.9
57.62 K, Crystal	106.9
59.71 K, Crystal	109.9
59.75 K, Glass	114.9
60 K, Crystal	110.2
60 K, Glass	115.6
61.89 K, Crystal	112.3
61.89 K, Glass	117.8
64.01 K, Glass	121.6
64.13 K, Crystal	115.1
66.11 K, Glass	123.9
66.36 K, Crystal	118.1
68.19 K, Glass	127.2
68.68 K, Crystal	120.7
70 K, Crystal	122
70 K, Glass	129.2
70.41 K, Glass	130
71.13 K, Crystal	123.1
72.69 K, Glass	132.8
73.64 K, Crystal	125.8
75.03 K, Glass	135.6
76.05 K, Crystal	128.6
77.42 K, Glass	138.4
78.39 K, Crystal	130.8
79.89 K, Glass	142.1
80 K, Crystal	132.7
80 K, Glass	141.8
80.75 K, Crystal	133.5
82.45 K, Glass	144.5
83.19 K, Crystal	136
84.93 K, Glass	147.7
85.74 K, Crystal	138.7
87.39 K, Glass	150.3
88.31 K, Crystal	141.4
89.83 K, Glass	153.7
90 K, Crystal	142.9
90 K, Glass	154.1
90.82 K, Crystal	143.8
92.25 K, Glass	157.1
93.26 K, Crystal	146.3
95.42 K, Glass	160.5
95.87 K, Crystal	149.1
97.92 K, Glass	163.5
98.65 K, Crystal	151.7
100 K, Crystal	153.2
100 K, Glass	166
100.28 K, Crystal	153.6
100.38 K, Glass	166.5
100.78 K, Glass	167.5
101.35 K, Crystal	154.9
102.77 K, Crystal	156.1
103.17 K, Glass	170
105.21 K, Crystal	158.5
105.51 K, Glass	172.9
107.6 K, Crystal	160.8
107.81 K, Glass	175.4
110 K, Crystal	163.1
110 K, Glass	177.9
110.06 K, Glass	177.9
110.13 K, Crystal	163.1
112.28 K, Glass	180.3
112.77 K, Crystal	165.8
114.54 K, Glass	183.2
115.37 K, Crystal	168.1
116.84 K, Glass	185.7
117.92 K, Crystal	170.7
119.11 K, Glass	188.2
120 K, Crystal	172.9
120 K, Glass	189.1
120.6 K, Crystal	173.4
121.35 K, Glass	190.5
123.41 K, Crystal	176.3
123.71 K, Glass	193.2
126.17 K, Crystal	178.9
126.2 K, Glass	195.8
128.66 K, Glass	198.4
128.89 K, Crystal	181.8
130 K, Crystal	182.8
130 K, Glass	200
131.16 K, Glass	201.3
131.56 K, Crystal	184.6
133.7 K, Glass	204.1
134.28 K, Crystal	187.2
136.2 K, Glass	207.1
137.03 K, Crystal	190.2
138.67 K, Glass	209.8
139.75 K, Crystal	193
140 K, Crystal	193.1
140 K, Glass	211
141.19 K, Glass	212.4
142.43 K, Crystal	195.6
143.75 K, Glass	215.3
145.07 K, Crystal	198.5
146.28 K, Glass	217.9
147.68 K, Crystal	201.1
148.93 K, Glass	220.9
150 K, Crystal	203.7
150 K, Glass	222.2
150.26 K, Crystal	204.1
151.7 K, Glass	224.2
152.8 K, Crystal	206.7
154.44 K, Glass	226.9
155.32 K, Crystal	209.6
157.14 K, Glass	230.1
157.81 K, Crystal	212.4
159.81 K, Glass	233.2
160 K, Crystal	214.6
160 K, Glass	233.6
160.34 K, Crystal	214.8
162.53 K, Glass	236.6
162.92 K, Crystal	217.8
165.29 K, Glass	239.8
165.46 K, Crystal	220.6
168.02 K, Glass	243.1
168.07 K, Crystal	223.6
170 K, Crystal	225.7
170 K, Glass	245.7
170.71 K, Crystal	226.4
170.72 K, Glass	246.4
173.34 K, Crystal	229.6
173.39 K, Glass	249.7
175.93 K, Crystal	232.7
176.04 K, Glass	253
177.26 K, Glass	254.8
178.5 K, Crystal	235.4
180 K, Crystal	237.2
180 K, Glass	258.1
180.15 K, Glass	258.7
181.04 K, Crystal	238.3
183.09 K, Glass	263.9
183.56 K, Crystal	241.2
186.06 K, Crystal	244.3
186.06 K, Glass	273
188.53 K, Crystal	247.2
188.97 K, Glass	285
190 K, Crystal	248.8
190 K, Glass	270.5
190.6 K, Glass	271.2
190.6 K, Liquid	352.9
190.98 K, Crystal	249.9
191.7 K, Glass	322.8
193.42 K, Crystal	252.8
194.24 K, Glass	351
194.81 K, Crystal	254.5
196.8 K, Liquid	355.5
197.49 K, Crystal	257.7
199.36 K, Liquid	356.4
200 K, Crystal	260.7
200 K, Liquid	356.9
200.29 K, Crystal	260.8
201.91 K, Liquid	357.9
203.07 K, Crystal	264.4
204.58 K, Liquid	359.1
205.82 K, Crystal	267.4
207.37 K, Liquid	360.1
208.72 K, Crystal	270.5
210 K, Crystal	272.2
210 K, Liquid	361.4
210.22 K, Liquid	361.4
211.76 K, Crystal	274.3
213.13 K, Liquid	363.4
214.78 K, Crystal	277.7
217.77 K, Crystal	280.9
220 K, Crystal	283.4
220 K, Liquid	366.1
220.73 K, Crystal	284.4
223.67 K, Crystal	287.4
226.59 K, Crystal	290.7
229.55 K, Crystal	293.6
230 K, Crystal	294.2
230 K, Liquid	370.9
232.58 K, Crystal	297.2
235.59 K, Crystal	300.4
238.56 K, Crystal	303.6
238.61 K, Liquid	375.5
240 K, Crystal	305.2
240 K, Liquid	376
240.98 K, Liquid	376.4
241.58 K, Crystal	307.1
243.49 K, Liquid	377.7
244.65 K, Crystal	310.8
246 K, Liquid	379.1
247.69 K, Crystal	313.5
248.49 K, Liquid	379.9
250 K, Crystal	316.7
250 K, Liquid	381.1
250.71 K, Crystal	316.9
250.97 K, Liquid	381.9
253.43 K, Liquid	382.8
253.7 K, Crystal	320.9
256.03 K, Liquid	384.1
256.67 K, Crystal	323.9
258.86 K, Liquid	386
259.68 K, Crystal	327.4
260 K, Crystal	328.2
260 K, Liquid	386.5
261.82 K, Liquid	387.4
262.73 K, Crystal	331.8
264.77 K, Liquid	388.5
265.76 K, Crystal	335.3
267.7 K, Liquid	390.6
268.75 K, Crystal	342
270 K, Crystal	339.6
270 K, Liquid	392.1
270.75 K, Liquid	392.9
273.92 K, Liquid	394.4
277.07 K, Liquid	396.2
279.27 K, Liquid	397.3
280 K, Crystal	351
280 K, Liquid	397.8
280.22 K, Liquid	397.8
282.28 K, Liquid	399.3
283.51 K, Crystal	355.1
283.51 K, Liquid	399.8
285.27 K, Liquid	401.1
288.25 K, Liquid	402.9
290 K, Liquid	403.8
290.53 K, Liquid	404.3
291.29 K, Liquid	404.5
293.21 K, Liquid	406.2
294.38 K, Liquid	406.7
296.25 K, Liquid	407.3
297.45 K, Liquid	409
298.15 K, Liquid	408.7
299.28 K, Liquid	409.7
300 K, Liquid	409.8
300.51 K, Liquid	409.8
302.31 K, Liquid	411.6
303.56 K, Liquid	411.8
305.32 K, Liquid	412.9
306.66 K, Liquid	414
308.31 K, Liquid	414.6
309.81 K, Liquid	416
310 K, Liquid	415.9
311.31 K, Liquid	416.3
320 K, Liquid	422.3
340 K, Liquid	434.7
360 K, Liquid	446.2
380 K, Liquid	457
400 K, Liquid	466.9
420 K, Liquid	476
440 K, Liquid	484.3
460 K, Liquid	491.8
480 K, Liquid	498.5
500 K, Liquid	504.4
520 K, Liquid	509.5
540 K, Liquid	513.8
550 K, Liquid	515.6
